Test results taken from US8772321B2, “Heteroannelated anthraquinone derivatives for inhibiting cancers” (National Defense Medical Center, priority 2008, dated 2014).

Legend:
Assay in all cases: NCI 60-cell one dose screen
Type in all cases: cell-based, human
[1] = system: UACC-257; conditions: UACC-257 (Melanoma); 10^−5M
Procedure: (§1) NSC745885 was studied as a prototype for anti-proliferative activity against human cancer cell lines in NCI Drug Screen Program (Table 1, below). NSC745885 was evaluated in the full panel of human tumor cell lines derived from nine cancer cell types (leukemia, non-small cell lung cancer, colon cancer, CNS cancer, prostate cancer, melanoma, ovarian cancer, renal cancer and breast cancer). Each subpanel uses several cell lines and dose-response curves were drawn against the decadic logarithm (log 10) of the corresponding drug concentrations for each cell line by the subpanel group. They were also evaluated in the 60 cell line panel and anticancer assay was performed in accordance with the protocol of developmental therapeutics program (one dose mean graph). Results for each compound were reported as the proliferation percentage of the treated cells with that of the untreated control cells being 100. For each of these parameters the averaged values of mean graph midpoint (MG_MID) were calculated.

[2] = system: CCRF-CEM; conditions: CCRF-CEM (Leukemia); 10^−5M
Procedure: as §1

[3] = system: OVCAR-3; conditions: OVCAR-3 (Ovarian cancer); 10^−5M
Procedure: as §1

[4] = system: SF-539; conditions: SF-539 (CNS cancer); 10^−5M
Procedure: as §1

[5] = system: MOLT-4; conditions: MOLT-4 (Leukemia); 10^−5M
Procedure: as §1

[6] = system: SF-268; conditions: SF-268 (CNS cancer); 10^−5M
Procedure: as §1

[7] = system: A549/ATCC; conditions: A549/ATCC (Non-small cell lung cancer); 10^−5M; untreated control 100
Procedure: as §1

[8] = system: COLO 205; conditions: COLO 205 (Colon cancer); 10^−5M
Procedure: as §1

[9] = system: SW-620; conditions: SW-620 (Colon cancer); 10^−5M
Procedure: as §1

[10] = system: NCI-H226; conditions: NCI-H226 (Non-small cell lung cancer); 10^−5M
Procedure: as §1

[11] = system: RPMI-8226; conditions: RPMI-8226 (Leukemia); 10^−5M
Procedure: as §1

[12] = system: IGROV1; conditions: IGROV1 (Ovarian cancer); 10^−5M
Procedure: as §1

[13] = system: OVCAR-5; conditions: OVCAR-5 (Ovarian cancer); 10^−5M
Procedure: as §1

[14] = system: OVCAR-8; conditions: OVCAR-8 (Ovarian cancer); 10^−5M
Procedure: as §1

[15] = system: UO-31; conditions: UO-31 (Renal cancer); 10^−5M
Procedure: as §1

[16] = system: SN12C; conditions: SN12C (Renal cancer); 10^−5M
Procedure: as §1

[17] = system: SK-MEL-2; conditions: SK-MEL-2 (Melanoma); 10^−5M
Procedure: as §1

[18] = system: SK-OV-3; conditions: SK-OV-3 (Ovarian cancer); 10^−5M
Procedure: as §1

[19] = system: TK-10; conditions: TK-10 (Renal cancer); 10^−5M
Procedure: as §1

[20] = system: RXF393; conditions: RXF393 (Renal cancer); 10^−5M
Procedure: as §1

[21] = system: A498; conditions: A498 (Renal cancer); 10^−5M
Procedure: as §1

[22] = system: NCI/ADR-RES; conditions: NCI/ADR-RES (Ovarian cancer); 10^−5M
Procedure: as §1

[23] = system: HCT-15; conditions: HCT-15 (Colon cancer); 10^−5M
Procedure: as §1

[24] = system: MDA-MB-231/ATCC; conditions: MDA-MB-231/ATCC (Breast cancer); 10^−5M
Procedure: as §1

[25] = system: SF-295; conditions: SF-295 (CNS cancer); 10^−5M
Procedure: as §1

[26] = system: NCI-H460; conditions: NCI-H460 (Non-small cell lung cancer); 10^−5M
Procedure: as §1

[27] = system: T-47D; conditions: T-47D (Breast cancer); 10^−5M
Procedure: as §1

[28] = system: 786-0; conditions: 786-0 (Renal cancer); 10^−5M
Procedure: as §1

[29] = system: ACHN; conditions: ACHN (Renal cancer); 10^−5M
Procedure: as §1

[30] = system: MALME-3M; conditions: MALME-3M (Melanoma); 10^−5M
Procedure: as §1

[31] = system: HCC-2998; conditions: HCC-2998 (Colon cancer); 10^−5M
Procedure: as §1

[32] = system: SK-MEL-28; conditions: SK-MEL-28 (Melanoma); 10^−5M
Procedure: as §1

[33] = system: MCF7; conditions: MCF7 (Breast cancer); 10^−5M
Procedure: as §1

[34] = system: SNB-19; conditions: SNB-19 (CNS cancer); 10^−5M
Procedure: as §1

`O=C1c2ccccc2C(=O)c2c1ccc1nsnc21` [NSC745885, anthra[2,1-c][1,2,5]thiadiazole-6,11-dione] was tested, and the proliferation percentage [1] was −83.07%, the proliferation percentage [2] was −30.81% and the proliferation percentage [3] was −15.47%. For the same molecule, the proliferation percentage [4] was −47.11%, the proliferation percentage [5] was −40.09% and the proliferation percentage [6] was 16.29%. The proliferation percentage [7] was 104.18%, the proliferation percentage [8] was 111.54% and the proliferation percentage [9] was 7.30%. The proliferation percentage [10] was 97.80%, the proliferation percentage [11] was −27.97% and the proliferation percentage [12] was −88.34%. It also gave a proliferation percentage [13] of −20.07%, a proliferation percentage [14] of −10.07% and a proliferation percentage [15] of −79.30%. It also gave a proliferation percentage [16] of −73.27%, a proliferation percentage [17] of −73.16% and a proliferation percentage [18] of 100.70%. For the same molecule, the proliferation percentage [19] was 96.99%, the proliferation percentage [20] was 20.11% and the proliferation percentage [21] was 130.09%. The proliferation percentage [22] was −2.53%, the proliferation percentage [23] was 1.48% and the proliferation percentage [24] was −17.33%. The proliferation percentage [25] was 126.17%, the proliferation percentage [26] was 77.41% and the proliferation percentage [27] was −45.52%. It also gave a proliferation percentage [28] of −25.98%, a proliferation percentage [29] of −94.31% and a proliferation percentage [30] of −71.54%. For the same molecule, the proliferation percentage [31] was −0.74%, the proliferation percentage [32] was 15.47% and the proliferation percentage [33] was −50.74%. It also gave a proliferation percentage [34] of 78.98%.
